Results published in patent publication US6967215B2, “Tetrahydrocarbazoles, a process for the preparation of those compounds, and the use thereof” (Ciba Specialty Chemicals Corporation, priority 2000, dated 2005).

How the values were obtained:
Experiment in all cases: MIC, microtitre dilution test (growth by optical density at 620 nm)
Type in all cases: cell-based
[1] = system: Escherichia coli NCTC 8196; details: for MIC [ppm] E. coil: Table 5
Protocol: (§1) Casein/soybean flour peptone bouillon for the preparation of pre-cultures of the test bacteria and yeast.
(§2) The test substances are predissolved in dimethyl sulfoxide (DMSO) and tested in a dilution series of 1:2.
(§3) Bacteria and yeast are cultured overnight in CASO bouillon, the mould is cultured overnight on mycological slant agar, and washed off with 10 ml of 0.85% sodium chloride solution (+0.1% TritonX-100).
(§4) All the test organisms are adjusted to an organism count of 1-5×10^6 CFU/ml using 0.85% sodium chloride solution.
(§5) The test substances are pre-pipetted into microtitre plates in an amount of 8 μl per well.
(§6) Pre-diluted organism suspensions are diluted 1:100 in CASO bouillon (bacteria and yeast) or Sabouraud 2% glucose bouillon (mould) and are added in an amount of 192 μl per well to the test substances.
(§7) The test batches are incubated for 48 hours at 37° C. (bacteria and yeast) or for 5 days at 28° C. (mould).
(§8) After incubation, the growth is evaluated by reference to the turbidity of the test batches (optical density) at 620 nm in a microplate reader.
(§9) The minimum inhibitory concentration (MIC value) is the concentration of substance at which (compared with the growth of the control) an appreciable inhibition of growth (≦20% growth) of the test organisms is ascertained.
(§10) One microtitre plate is used for each test organism and substance concentration. All the substances are tested in duplicate.

[2] = system: Staphylococcus hominis DMS 20328
Protocol: as §1, §2, §3, §4, §5, §6, §7, §8, §9, §10

[3] = system: Aspergillus niger ATCC 6175; details: Table 5
Protocol: (§11) Nutrient: Mycological slant agar for the pre-culture of moulds [table] The test substances are predissolved in dimethyl sulfoxide (DMSO) and tested in a dilution series of 1:2. Bacteria and yeast are cultured overnight in CASO bouillon, the mould is cultured overnight on mycological slant agar, and washed off with 10 ml of 0.85% sodium chloride solution (+0.1% TritonX-100). All the test organisms are adjusted to an organism count of 1-5×10^6 CFU/ml using 0.85% sodium chloride solution. The test substances are pre-pipetted into microtitre plates in an amount of 8 μl per well. Pre-diluted organism suspensions are diluted 1:100 in CASO bouillon (bacteria and yeast) or Sabouraud 2% glucose bouillon (mould) and are added in an amount of 192 μl per well to the test substances. The test batches are incubated for 48 hours at 37° C. (bacteria and yeast) or for 5 days at 28° C. (mould). After incubation, the growth is evaluated by reference to the turbidity of the test batches (optical density) at 620 nm in a microplate reader. The minimum inhibitory concentration (MIC value) is the concentration of substance at which (compared with the growth of the control) an appreciable inhibition of growth (≦20% growth) of the test organisms is ascertained. One microtitre plate is used for each test organism and substance concentration. All the substances are tested in duplicate.

[4] = system: P. aeruginosa; details: Table 5
Protocol: as §11, with “All” for “Nutrient: Mycological slant agar for the pre-culture of moulds [table] The test substances are predissolved in dimethyl sulfoxide (DMSO) and tested in a dilution series of 1:2. Bacteria and yeast are cultured overnight in CASO bouillon, the mould is cultured overnight on mycological slant agar, and washed off with 10 ml of 0.85% sodium chloride solution (+0.1% TritonX-100). All”

[5] = Table 2, Staphylococcus hominis DMS 20328

| Structure (SMILES) | MIC [ppm] E. coli ([1]; Table 2, Escherichia coli) [ppm] | MIC [ppm] S. hominis [2, 5] [ppm] | further results |
| --- | --- | --- | --- |
| CCCN1CCC2c3c([nH]c4ccccc34)C3C(=O)N(C)C(=O)C3C2C1 (stereo not shown) [Compound 114] | >120 | >120 |  |
| CCOC(=O)N1CCC2c3c([nH]c4ccccc34)C3C(=O)N(C)C(=O)C3C2C1 (stereo not shown) [Compound 115] | >120 | 60 |  |
| CC(C)N1CCC2c3c([nH]c4ccccc34)C3C(=O)N(C)C(=O)C3C2C1 (stereo not shown) [Compound 116] | >120 | 120 |  |
| CC1CCC2C(C1)c1c([nH]c3ccccc13)C1C(=O)N(C)C(=O)C12 (stereo not shown) [Compound 117] |  |  | MIC ([1]; NCTC8196, Table 2, Escherichia coli, read-out: MIC [ppm] E. coli): > 120 µg/mL; MIC ([2]; DMS20328, Table 2, Staphylococcus hominis DMS 20328, read-out: MIC [ppm] S. hominis): > 120 µg/mL |
| CCCC1CCC2c3c([nH]c4ccccc34)C3C(=O)N(C)C(=O)C3C2C1 (stereo not shown) [Compound 119] | >120 | >120 |  |
| CCC(C)(C)C1CCC2c3c([nH]c4ccccc34)C3C(=O)N(C)C(=O)C3C2C1 (stereo not shown) [Compound 120] | >120 | 30 |  |
| CCN1CCC2c3c([nH]c4ccccc34)C3C(=O)N(C)C(=O)C3C2C1 (stereo not shown) [Compound 121] | >120 | >120 |  |
| CN1C(=O)C2c3[nH]c4ccccc4c3C3CCN(Cc4ccccc4)CC3C2C1=O (stereo not shown) [Compound 122] | >120 | >120 |  |
| CN1CCC2c3c([nH]c4ccccc34)C3C(=O)N(C)C(=O)C3C2C1 (stereo not shown) [Compound 123] | 120 | >120 |  |
| CN1C(=O)C2c3[nH]c4ccccc4c3C3CCCCCCC3C2C1=O (stereo not shown) [Compound 125] | >120 | >120 |  |
| CN1C(=O)C2c3[nH]c4ccccc4c3C3CC(C)(C)CC(C)(C)C3C2C1=O (stereo not shown) [Compound 126] | >120 | >120 |  |
| CN1C(=O)C2c3[nH]c4ccc(Br)cc4c3C3CCC(C(C)(C)C)CC3C2C1=O (stereo not shown) [Compound 129] | >120 | >120 |  |
| CN1C(=O)C2c3[nH]c4ccc(Br)cc4c3C3CCCCCC3C2C1=O (stereo not shown) [Compound 130] | >120 | 15 |  |
| CCc1cccc2c3c([nH]c12)C1C(=O)N(C)C(=O)C1C1CCCCCCC31 (stereo not shown) [Compound 162] | >120 | 120 |  |
| COc1ccc2[nH]c3c(c2c1)C1CCCCC1C1C(=O)N(C)C(=O)C31 (stereo not shown) [Compound 164] | >120 | >120 |  |
| COc1ccc2[nH]c3c(c2c1)C1CCCC1C1C(=O)N(C)C(=O)C31 (stereo not shown) [Compound 165] | >120 | 120 |  |
| COc1ccc2[nH]c3c(c2c1)C1CCC(C(C)(C)C)CC1C1C(=O)N(C)C(=O)C31 (stereo not shown) [Compound 166] | >120 | >120 |  |
| COc1ccc2[nH]c3c(c2c1)C1CCCCCC1C1C(=O)N(C)C(=O)C31 (stereo not shown) [Compound 167] | >120 | >120 |  |
| COc1ccc2[nH]c3c(c2c1)C1CC(C)(C)NC(C)(C)C1C1C(=O)N(C)C(=O)C31 (stereo not shown) [Compound 168] | >120 | >120 |  |
| CCCN1CCC2c3c([nH]c4ccc(OC)cc34)C3C(=O)N(C)C(=O)C3C2C1 (stereo not shown) [Compound 169] | >120 | >120 |  |

| Structure (SMILES) | MIC [ppm] E. coli ([1]; Table 2, Escherichia coli) [ppm] | MIC [ppm] S. hominis [2, 5] [ppm] | further results |
| --- | --- | --- | --- |
| CCOC(=O)N1CCC2c3c([nH]c4ccc(OC)cc34)C3C(=O)N(C)C(=O)C3C2C1 (stereo not shown) [Compound 170] | >120 | >120 |  |
| COc1ccc2[nH]c3c(c2c1)C1CCN(C(C)C)CC1C1C(=O)N(C)C(=O)C31 (stereo not shown) [Compound 171] | >120 | >120 |  |
| COc1ccc2[nH]c3c(c2c1)C1CC(C)CCC1C1C(=O)N(C)C(=O)C31 (stereo not shown) [Compound 172] | >120 | >120 |  |
| CCCC1CCC2c3c([nH]c4ccc(OC)cc34)C3C(=O)N(C)C(=O)C3C2C1 (stereo not shown) [Compound 174] | >120 | 30 |  |
| CCC(C)(C)C1CCC2c3c([nH]c4ccc(OC)cc34)C3C(=O)N(C)C(=O)C3C2C1 (stereo not shown) [Compound 175] | >120 | >120 |  |
| CCN1CCC2c3c([nH]c4ccc(OC)cc34)C3C(=O)N(C)C(=O)C3C2C1 (stereo not shown) [Compound 176] | >120 | >120 |  |
| COc1ccc2[nH]c3c(c2c1)C1CCN(Cc2ccccc2)CC1C1C(=O)N(C)C(=O)C31 (stereo not shown) [Compound 177] | 120 | 120 |  |
| COc1ccc2[nH]c3c(c2c1)C1CCN(C)CC1C1C(=O)N(C)C(=O)C31 (stereo not shown) [Compound 178] | >120 | >120 |  |
| COc1ccc2[nH]c3c(c2c1)C1CCCCCCCCCCC1C1C(=O)N(C)C(=O)C31 (stereo not shown) [Compound 179] | >120 | >120 |  |
| COc1ccc2[nH]c3c(c2c1)C1CCCCCCC1C1C(=O)N(C)C(=O)C31 (stereo not shown) [Compound 180] | >120 | >120 |  |
| COc1ccc2[nH]c3c(c2c1)C1CC(C)(C)CC(C)(C)C1C1C(=O)N(C)C(=O)C31 (stereo not shown) [Compound 181] | >120 | >120 |  |
| O=C1NC(=O)C2C1c1[nH]c3ccccc3c1C1CC3CCCCC3CC12 (stereo not shown) [Compound 183] |  |  | MIC [ppm] E. coil [1]: >120 ppm; MIC [ppm] S. hominis ([2]; Table 5): 15 ppm; MIC [ppm] A. niger [3]: >120 ppm; MIC [ppm] P. aeruginosa [4]: >120 ppm |
| CCCN1CCC2c3c([nH]c4cccc(C)c34)C3C(=O)NC(=O)C3C2C1 (stereo not shown) [Compound 186] |  |  | MIC [ppm] E. coil [1]: >120 ppm; MIC [ppm] S. hominis ([2]; Table 5): >120 ppm; MIC [ppm] A. niger [3]: >120 ppm; MIC [ppm] P. aeruginosa [4]: 120 ppm |
| COc1cccc2[nH]c3c(c12)C1CCCCCC1C1C(=O)NC(=O)C31 (stereo not shown) [Compound 187] |  |  | MIC [ppm] E. coil [1]: >120 ppm; MIC [ppm] S. hominis ([2]; Table 5): 30 ppm; MIC [ppm] A. niger [3]: >120 ppm; MIC [ppm] P. aeruginosa [4]: 60 ppm |
| COc1cccc2[nH]c3c(c12)C1CCCCCCCCCCC1C1C(=O)NC(=O)C31 (stereo not shown) [Compound 188] |  |  | MIC [ppm] E. coil [1]: >120 ppm; MIC [ppm] S. hominis ([2]; Table 5): 15 ppm; MIC [ppm] A. niger [3]: >120 ppm; MIC [ppm] P. aeruginosa [4]: >120 ppm |
| CC(C)NCC(O)COc1cccc2[nH]c3c(c12)C1CCCCCC1C1C(=O)NC(=O)C31 (stereo not shown) [Compound 189] |  |  | MIC [ppm] E. coil [1]: 120 ppm; MIC [ppm] S. hominis ([2]; Table 5): 15 ppm; MIC [ppm] A. niger [3]: >120 ppm; MIC [ppm] P. aeruginosa [4]: >120 ppm |
| CCCN1CCC2c3c([nH]c4cccc(OCC(O)CNC(C)C)c34)C3C(=O)NC(=O)C3C2C1 (stereo not shown) [Compound 190] |  |  | MIC [ppm] E. coil [1]: >120 ppm; MIC [ppm] S. hominis ([2]; Table 5): >120 ppm; MIC [ppm] A. niger [3]: >120 ppm; MIC [ppm] P. aeruginosa [4]: >120 ppm |
| CCCN1CCC2c3c([nH]c4ccc(F)cc34)C3C(=O)NC(=O)C3C2C1 (stereo not shown) [Compound 193] |  |  | MIC [ppm] E. coil [1]: 60 ppm; MIC [ppm] S. hominis ([2]; Table 5): >120 ppm; MIC [ppm] A. niger [3]: >120 ppm; MIC [ppm] P. aeruginosa [4]: >120 ppm |
| CCCN1CCC2c3c([nH]c4cc(Cl)ccc34)C3C(=O)NC(=O)C3C2C1 (stereo not shown) [Compound 199] |  |  | MIC [ppm] E. coil [1]: >120 ppm; MIC [ppm] S. hominis ([2]; Table 5): 120 ppm; MIC [ppm] A. niger [3]: >120 ppm; MIC [ppm] P. aeruginosa [4]: >120 ppm |
